From patent publication US20250186391A1, “ORAL COMPLEMENT FACTOR D INHIBITORS” (BioCryst Pharmaceuticals, Inc., priority 2019, published 2025)

These compounds were tested against Factor D (Homo sapiens (Human), UniProt P00746) (assay: Factor D esterolytic assay). Settings: Z-Lys-SBzl substrate, 100 mM HEPES, 500 mM NaCl, pH 7.5, 10% DMSO; tested a minimum of three times; read-out: Measured Ki (IC50) Value for Compounds: IC50.
Type: biochemical
Experimental: The IC50 value of a compound (i.e., the concentration of the compound that inhibits 50% of the enzymatic activity) was calculated according to the procedure reported in U.S. Pat. No. 6,653,340 B1, e.g., column 74 (incorporated by reference).
Specifically, the compounds were dissolved in a stock solution of DMSO at 10.0 or 100 mM. A portion of this stock solution was added to assay buffer in a final volume of 50 μL. Controls included buffer alone and enzyme solutions to which DMSO was added. Substrate was added to the reaction wells immediately or after incubation at room temperature. The reaction rates were measured spectrophotometrically by the generation of product at 405 nm for 600 sec. Background absorbance at 690 nm was measured and subtracted from the absorbance at 405 nm for each well.
The reaction rate for enzyme alone was compared to the rate of enzyme in the presence of inhibitor and the percent inhibition was calculated as shown below: […]
An established esterolytic assay for the measurement of Factor D activity and inhibition of Factor D activity was used (Kam, C. M.; McRae, B. J.; Harper, J. W.; Niemann, M. A.; Volanakis, J. E.; Powers, J. C. Human complement proteins D, C2, and B Active site mapping with peptide thioester substrates. J Biol. Chem. 1987, 262, 3444-3451). For this assay Z-Lys-SBzl, 1.29 mM (Kim, S.; Narayana, S. V. L; Volanakis, J. E. Mutational analysis of the substrate binding site of human complement Factor D. Biochemistry. 1994, 33, 14393-14399.) was used as the substrate for Factor D ([…]). Hydrolysis of this compound by Factor D liberated a free sulfhydryl group which is then reacted with 5,5′-dithiobis(2nitrobenzoic acid) producing an intense yellow color (Habeeb, A. F. S. A. Reaction of protein sulfhydryl groups with Ellman's Reagent. Methods in Enzymol. 1976, 25, 457-464.). The assays were performed in 96 well microtiter plates and rates of hydrolysis were monitored at 405 nm on a Biotek Synergy H1 plate reader. Hydrolysis rates were reported as change in mOD/min. The assay was conducted in 100 mM HEPES, 500 mM NaCl, pH 7.5 containing 10% DMSO in a final volume of 50 μL per well.
An IC50, a compound concentration which inhibits 50% of the enzymatic activity, was calculated. Compounds in the examples were tested a minimum of three times.

Factor D, sequence (P00746 26-253): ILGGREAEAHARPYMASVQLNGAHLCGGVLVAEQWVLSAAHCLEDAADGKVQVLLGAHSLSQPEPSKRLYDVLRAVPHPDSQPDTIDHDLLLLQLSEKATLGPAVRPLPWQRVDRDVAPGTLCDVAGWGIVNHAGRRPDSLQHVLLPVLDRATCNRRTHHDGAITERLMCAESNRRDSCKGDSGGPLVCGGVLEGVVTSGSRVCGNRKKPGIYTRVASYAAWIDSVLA

| IC50 | SMILES |
| --- | --- |
| < 1000 nM | NCc1cccc(-c2cc(CO)cc3cc(COc4ccccc4CC(=O)O)oc23)c1 [Compound 29b, 2-(2-((7-(3-(aminomethyl)phenyl)-5-(hydroxymethyl)benzofuran-2-yl)methoxy)phenyl)acetic acid] |
| < 1000 nM | NCc1cccc(-c2cccc3cc(COc4ccccc4CC(=O)O)sc23)c1 [Compound 30d, 2-(2-((7-(3-(aminomethyl)phenyl)benzo[b]thiophen-2-yl)methoxy)phenyl)acetic acid] |
| < 1000 nM | CC(O)c1cc(-c2cccc(CN)c2)c2oc(COc3ccccc3CC(=O)O)cc2c1 (centres unmarked) [Compound 31, 2-(2-((7-(3-(aminomethyl)phenyl)-5-(1-hydroxyethyl)benzofuran-2-yl)methoxy)phenyl)acetic acid] |
| < 1000 nM | NCc1cccc(-c2cc(F)cc3cc(COc4ccccc4CC(=O)O)oc23)c1 [Compound 31f, 2-(2-((7-(3-(aminomethyl)phenyl)-5-fluorobenzofuran-2-yl)methoxy)phenyl)acetic acid] |
| < 1000 nM | NCc1cccc(-c2cc(C(=O)NCC3CC3)cc3cc(COc4ccccc4CC(=O)O)oc23)c1 [Compound 32d, 2-(2-((7-(3-(aminomethyl)phenyl)-5-((cyclopropylmethyl)carbamoyl)benzofuran-2-yl)methoxy)phenyl)acetic acid] |
| < 1000 nM | NCc1cccc(-c2cc(COc3ccccc3)cc3cc(COc4ccccc4CC(=O)O)oc23)c1 [Compound 33f, 2-(2-((7-(3-(aminomethyl)phenyl)-5-(phenoxymethyl)benzofuran-2-yl)methoxy)phenyl)acetic acid] |
| > 10000 nM | NCc1cccc(-c2cccc3cc(COc4cccc(CC(=O)O)c4)oc23)c1 [Compound 34c, 2-(3-((7-(3-(aminomethyl)phenyl)benzofuran-2-yl)methoxy)phenyl)acetic acid] |
| > 10000 nM | NCc1cccc(-c2cccc3cc(COc4ccccc4CCC(=O)O)oc23)c1 [Compound 35c, 3-(2-((7-(3-(aminomethyl)phenyl)benzofuran-2-yl)methoxy)phenyl)propanoic acid] |
| > 10000 nM | NCc1cccc(-c2cccc3c(COc4ccccc4CC(=O)O)coc23)c1 [Compound 36e, 2-(2-((7-(3-(aminomethyl)phenyl)benzofuran-3-yl)methoxy)phenyl)acetic acid] |
| 1000 to 10000 nM | NCc1cccc(-c2cc(C(=O)O)cc3cc(COc4ccccc4CC(=O)O)oc23)c1 [Compound 37b, 7-(3-(aminomethyl)phenyl)-2-((2-(carboxymethyl)phenoxy)methyl)benzofuran-5-carboxylic acid] |
| < 1000 nM | NCc1cccc(-c2coc3ccc(COc4ccccc4CC(=O)O)cc23)c1 [Compound 38e, 2-(2-((3-(3-(aminomethyl)phenyl)benzofuran-5-yl)methoxy)phenyl)acetic acid] |
| < 1000 nM | NCc1cccc(-c2ccc3occ(COc4cc(F)ccc4CC(=O)O)c3c2)c1 [Compound 39f, 2-(2-((5-(3-(aminomethyl)phenyl)benzofuran-3-yl)methoxy)-4-fluorophenyl)acetic acid] |
| < 1000 nM | NCc1cc(F)cc(-c2ccc3occ(COc4ccccc4CC(=O)O)c3c2)c1 [Compound 40c, 2-(2-((5-(3-(aminomethyl)-5-fluorophenyl)benzofuran-3-yl)methoxy)phenyl)acetic acid] |
| 1000 to 10000 nM | NCc1cc(F)cc(-c2ccc3occ(Cc4cccc(CC(=O)O)c4O)c3c2)c1 [Compound 40d, 2-(3-((5-(3-(aminomethyl)-5-fluorophenyl)benzofuran-3-yl)methyl)-2-hydroxyphenyl)acetic acid] |
| > 10000 nM | NCc1cccc(-c2cccc3cc(COc4ccccc4CC(=O)O)ccc23)c1 [Compound 41d, 2-(2-((5-(3-(aminomethyl)phenyl)naphthalen-2-yl)methoxy)phenyl)acetic acid] |
| < 1000 nM | NCc1cccc(-c2ccc3occ(COc4ccccc4CC(=O)O)c3c2)c1F [Compound 42b, 2-(2-((5-(3-(aminomethyl)-2-fluorophenyl)benzofuran-3-yl)methoxy)phenyl)acetic acid] |
| < 1000 nM | NCc1cccc(-c2ccc3occ(Cc4cccc(CC(=O)O)c4O)c3c2)c1F [Compound 42c, 2-(3-((5-(3-(aminomethyl)-2-fluorophenyl)benzofuran-3-yl)methyl)-2-hydroxyphenyl)acetic acid] |
| > 10000 nM | NCc1cccc(-c2cccc3cc(COc4ccccc4CCC(=O)O)ccc23)c1 [Compound 43c, 3-(2-((5-(3-(aminomethyl)phenyl)naphthalen-2-yl)methoxy)phenyl)propanoic acid] |
| < 1000 nM | NCc1cccc(-c2ccc3occ(COc4c(F)cccc4CC(=O)O)c3c2)c1 [Compound 44d, 2-(2-((5-(3-(aminomethyl)phenyl)benzofuran-3-yl)methoxy)-3-fluorophenyl)acetic acid] |
| < 1000 nM | NCc1cccc(-c2ccc3occ(COc4ccc(F)cc4CC(=O)O)c3c2)c1F [Compound 45b, 2-(2-((5-(3-(aminomethyl)-2-fluorophenyl)benzofuran-3-yl)methoxy)-5-fluorophenyl)acetic acid] |
| < 1000 nM | NCc1cccc(-c2ccc3occ(COc4c(F)cccc4CC(=O)O)c3c2)c1F [Compound 46b, 2-(2-((5-(3-(aminomethyl)-2-fluorophenyl)benzofuran-3-yl)methoxy)-3-fluorophenyl)acetic acid] |
| < 1000 nM | Cc1ccc(CC(=O)O)c(OCc2coc3ccc(-c4cccc(CN)c4)cc23)c1 [Compound 47d, 2-(2-((5-(3-(aminomethyl)phenyl)benzofuran-3-yl)methoxy)-4-methylphenyl)acetic acid] |
| < 1000 nM | COc1ccc(CC(=O)O)c(OCc2coc3ccc(-c4cccc(CN)c4)cc23)c1 [Compound 48b, 2-(2-((5-(3-(aminomethyl)phenyl)benzofuran-3-yl)methoxy)-4-methoxyphenyl)acetic acid] |
| < 1000 nM | CCc1ccc(CC(=O)O)c(OCc2coc3ccc(-c4cccc(CN)c4)cc23)c1 [Compound 49b, 2-(2-((5-(3-(aminomethyl)phenyl)benzofuran-3-yl)methoxy)-4-ethylphenyl)acetic acid] |
| < 1000 nM | NCc1nccc(-c2ccc3occ(COc4ccccc4CC(=O)O)c3c2)c1F [Compound 50d, 2-(2-((5-(2-(aminomethyl)-3-fluoropyridin-4-yl)benzofuran-3-yl)methoxy)phenyl)acetic acid] |
| < 1000 nM | N[C@H](CO)c1cccc(-c2ccc3occ(COc4ccccc4CC(=O)O)c3c2)c1 [Compound 51c, (S)-2-(2-((5-(3-(1-amino-2-hydroxyethyl)phenyl)benzofuran-3-yl)methoxy)phenyl)acetic acid] |
| < 1000 nM | C[C@@H](N)c1cccc(-c2ccc3occ(COc4ccccc4CC(=O)O)c3c2)c1 [Compound 52c, (R)-2-(2-((5-(3-(1-aminoethyl)phenyl)benzofuran-3-yl)methoxy)phenyl)acetic acid] |
| < 1000 nM | NCc1cc(-c2ccc3occ(COc4ccccc4CC(=O)O)c3c2)ccn1 [Compound 53b, 2-(2-((5-(2-(aminomethyl)pyridin-4-yl)benzofuran-3-yl)methoxy)phenyl)acetic acid] |
| < 1000 nM | C[C@H](N)c1cccc(-c2ccc3occ(COc4ccccc4CC(=O)O)c3c2)c1 [Compound 54c, (S)-2-(2-((5-(3-(1-aminoethyl)phenyl)benzofuran-3-yl)methoxy)phenyl)acetic acid] |
